Results published in patent EP0263213B1, “C20 Through C26 amino steroids” (THE UPJOHN COMPANY, priority 1986, dated 1988).

Tests used:
arachidonic acid = assay: Arachidonic Acid Antagonism Assay (AAAA); assay type: in vivo; settings: active = elevates the LD50 of sodium arachidonate outside the 95% confidence interval of the control LD50; test compound IV 15 minutes before; male CF-1 mice
Description: Since these metabolites contribute to the pathological problems associated with stroke, spinal trauma and head injury, compounds which antagonize arachidonic acid are useful in treating stroke, spinal trauma and head injury.
While not necessary to determine arachidonic acid antagonism, the above assay has been modified as follows: Charles River male CF-1 mice weighing 18-22g are treated IV with the test compound dissolved in 1.0% Tween-80 and 0.1% hydrochloric acid in distilled water, 0.2 ml total volume. Fifteen minutes later sodium arachidonate (90% pure) in physiological (normal) saline is injected into the tail vein. The LD₅₀ is measured using the Spearman-Karber method with a log dose interval of 0.05 (N=6). Compounds which elevate the LD₅₀ outside of the 95% confidence interval of the control LD₅₀ are considered to be "active".

mucous secretion = assay: inhibition of mucous secretion assay of Johnson; settings: active = inhibits or blocks enhancement of induced mucous secretions
Excerpt: The inhibition of mucous secretion assay of Johnson Int. […] According to this procedure compounds which inhibit or block enhancement of induced mucous secretions when tested are considered to be "active".

rat brain synaptosomes [1] = assay: Conjugated Diene Formation Assay; assay type: biochemical; settings: active = inhibits conjugated diene formation by 50% or more; 100 »M (or less) of drug, 100 »M hydrogen peroxide, 200 »M ferrous ammonium sulfate
Excerpt: The formation of conjugated dienes as assayed by Braughler, J. Neurochem., 44, 1282 (1985), Bucher, Fund. Applied Tox., 3, 222 (1983) and Tein, Arch. Biochem. Biophy., 216, 142 (1982) is a standard pharmacological laboratory procedure useful for identifying compounds which inhibit lipid peroxidation. Since lipid peroxidation is involved in the pathophysiology of central nervous system trauma, compounds which inhibit conjugated diene formation are useful in treating the conditions listed below.
44, 1282 (1985). Synaptosomal suspension (10 »l) is added to 1 ml of physiological (normal) saline containing 1 % Lubrol PX (Sigma Chemical Co. St. Louis, Mo.), 100 »M hydrogen peroxide and 100 »M (or less) of the drug to be tested prepared in either absolute ethanol or water depending upon solubility. The reaction is started by the rapid addition of 200 »M ferrous ammonium sulfate is prepared in argon-purged water. The sample is rapidly mixed and the change in absorbance at 232nm is followied in a Gilford Response Spectrophotometer equipped with a rapid sampler. Due to the rapidity of the reaction, rapid addition of the iron, rapid mixing and sampling are obligatory to the accuracy of the assay. For best results absorbance readings of one/sec should be started within 5 sec following the addition of iron. The initial linear rate of absorbance change during the first 30 sec of reaction are compared with the rate of a reaction containing all reagents except synaptosomes. The difference in rates is the rate of conjugated diene formation. Rates with drug are compared to rates obtained in the absence of drug and the % inhibition is calculated. A compound that inhibits conjugated diene formation by 50% or more is considered to be "active".

interleukin-1 = assay: inhibition of interleukin-1 induced T cell proliferation assay; assay type: cell-based; settings: for % Inhibition at 10⁻⁶ M: interleukin-1 induced T cell proliferation
Excerpt: The inhibition of interleukin-1 induced T cell proliferation assay, Proc. Nat. […] Since people with arthritis make excess interleukin 1, compounds which inhibit the activity of interleukin 1 are useful in the treatment of arthritis. According to this procedure compounds which inhibit the activity of interleukin 1 greater that 30% at 10⁻⁶ M are considered to be "active".

rat brain synaptosomes [2] = assay: Malonyldialdehyde (MDA) Formation Assay; assay type: biochemical; settings: active = inhibits MDA formation by 50% or more at 200»M or less; 10 min at 37°, pH 7.0, 150 uM Fe+++ and 50 uM Fe++
Description: Since lipid peroxidation is involved in the pathophysiology of central nervous system trauma, compounds which inhibit MDA formation are useful in treating the conditions listed below.
While not necessary to determine MDA formation, the above assays have been modified as follows: rat brain synaptosomes are prepared as described in the Example about the conjugated diene assay, except that the final wash of the synaptosomes and final suspension are in physiological (normal) saline in which the pH has been adjusted to 7.0. The synaptosomes are incubated for 10 min at 37° in physiological (normal) saline pH 7.0 (total volume = 100 ul) containing; 10 ul synaptosomal suspension, 10% DMSO plus or minus drug, 150 uM Fe⁺⁺⁺ and 50 uM Fe++. The incubation is started by the rapid addition of iron to the otherwise complete reaction. The iron solutions are prepared fresh as ferric chloride and ferrous ammonium sulfate in argon-purged water. Following the 10 min incubation, the reaction is stopped by the addition of 500 ul ice-cold 12% trichloroacetic acid prepared in 0.5 N hydrochoric acid. Water (300 ul) is then added along with 100 ul of freshly prepared thiobarbituric acid (3.3% in 0.5N sodium hydroxide) and 10 ul of 5mM desferrioxamine. The sample is then heated in a boiling water bath for 20 minutes. The samples are cooled and centrifuged for 15 minutes at 1500 xg and the absorbance of the supernatant fraction is read at 532 nm. The % inhibition of MDA formation is calculated by dividing the absorbance of sample containing drug by the absorbance of samples incubated without drug. Reaction blanks are samples incubated in the absence of iron. A compound that inhibits MDA formation by 50% or more at a concentration of 200»M or less is considered "active".

mouse head injury = assay: in vivo mouse head injury procedure of Hall (1 hr post-injury grip test); settings: 1 hr after head injury, statistically significant (p < 0.05)
chick embryo = assay: fertile egg or chick embryo assay of Folkman (angiogenesis); assay type: in vivo; settings: 50 »g/10 »l in the presence of heparin
Excerpt: According to this procedure compounds which are considered to be "active" (i.e. antiangiogenic) give an avascular zone of 4 mm or greater in some embryos when tested at 50 »g/10 »l in the presence of 50 »g/10 » of heparin.

[3] = tested on: aspirin/cold induced ulcer; assay: aspirin/cold induced ulcer assay of Rainsford; assay type: in vivo; settings: active = 50% or more reduction of ulcer index
Excerpt: According to this procedure compounds which give a 50% or more reduction of ulcer index are considered to be "active".

ACAT = assay: AcylCoA:Cholesterol Acyltransferase (ACAT) Inhibition Assay; assay type: cell-based; settings: for inhibiting ACAT: active = inhibits ACAT activity equal to, or greater than, that of chlorpromazine
Excerpt: ACAT esterifies arterial cholesterol which is a key reaction in the development of atherosclerosis. The procedure of Bell, Can. […] In the ACAT assay it is preferred to use Fu5AH cells, see Lipids 9, 526 (1974). According to this procedure, compounds which inhibit ACAT activity equal to, or greater than, that of chlorpromazine are considered "active".

SEA Japanese Quail = assay: Antiatherosclerosis Screen in SEA Japanese Quail; assay type: in vivo; settings: quail fed an atherogenic diet; active = decrease of serum or arterial cholesterol > 30 %

CS(=O)(=O)O.C[C@]12CCC(=O)C=C1CC[C@@H]1C2=CC[C@@]2(C)[C@H]1CC[C@]2(O)C(=O)CN1CCN(c2ccccn2)CC1 [Example 2, 17α-Hydroxy-21-[4-(2-pyridinyl)-1-piperazinyl]pregna-4,9(11)-diene-3,20-dione methanesulfonate]
arachidonic acid antagonism (arachidonic acid): demonstrate arachidonic acid antagonism
inhibition of mucous secretion (mucous secretion; methanesulfonate): preferred mucous inhibitors
inhibition of conjugated diene formation (rat brain synaptosomes [1]): demonstrate such activity by inhibition of conjugated dienes

C[C@]12CCC(=O)C=C1CC[C@@H]1C2=CC[C@@]2(C)[C@H]1CC[C@]2(O)C(=O)CN1CCN(c2cc(N3CCOCC3)nc(N3CCOCC3)n2)CC1.Cl.Cl.O [Example 105, 21-[4-(2,6-Bis(4-morpholinyl)-4-pyrimidinyl)-1-piperazinyl]-17α-hydroxypregna-4,9(11)-diene-3,20-dione dihydrochloride, hydrate]
% Inhibition at 10⁻⁶ M (interleukin-1): 76%
inhibition of mucous secretion (mucous secretion; dihydrochloride, hydrate): preferred mucous inhibitors

CS(=O)(=O)O.CS(=O)(=O)O.C[C@@H]1C[C@H]2[C@@H]3CCC4=CC(=O)C=C[C@]4(C)C3=CC[C@]2(C)[C@H]1C(=O)CN1CCN(c2cc(N3CCCC3)nc(N3CCCC3)n2)CC1 [Example 83, 16α-Methyl-21-[4-[2,6-bis(pyrrolidino)-4-pyrimidyl]-1-piperazinyl]pregna-1,4,9(11)-triene-3,20-dione dimethane-sulfonate]
inhibition of MDA formation (rat brain synaptosomes [2]): demonstrate such activity by inhibition of MDA formation
% Increase in 1 hr Post-Injury Grip Test Scores After 3 mg/kg (mouse head injury): 134.5%
% Inhibition at 10⁻⁶ M (interleukin-1): 62%
inhibition of mucous secretion (mucous secretion): preferred mucous inhibitors
inhibition of conjugated diene formation (rat brain synaptosomes [1]): demonstrate such activity by inhibition of conjugated dienes

CCN(CC)c1ccc(N2CCN(CC(=O)[C@H]3CC[C@H]4[C@@H]5CCC6=CC(=O)C=C[C@]6(C)[C@H]5CC[C@]34C)CC2)nc1N(CC)CC.Cl.Cl [Example 120]
inhibition of MDA formation (rat brain synaptosomes [2]): demonstrate such activity by inhibition of MDA formation
% Inhibition at 10⁻⁶ M (interleukin-1): 56%
inhibition of interleukin 1 (interleukin-1; active = inhibits the activity of interleukin 1 greater than 30% at 10⁻⁶ M): demonstrate inhibition of interleukin 1

CN(C)c1cc(N2CCN(CC(=O)[C@@]3(O)CC[C@H]4[C@@H]5CCC6=CC(=O)CC[C@]6(C)C5=CC[C@@]43C)CC2)nc(N(C)C)n1.Cl.Cl.O [Example 16, 17α-Hydroxy-21-[4-[2,6-bis(dimethylamino)-4-pyrimidinyl]-1-piperazinyl]pregna-4,9(11)-diene-3,20-dione dihydrochloride hydrate]
inhibition of mucous secretion (mucous secretion): demonstrate such activity
% of Embryos with 4 mm or Greater Avascular Zone (chick embryo): 91%
anti-ulcer activity [3]: demonstrates anti-ulcer activity

C[C@@H]1C[C@H]2[C@@H]3CCC4=CC(=O)C=C[C@]4(C)C3=CC[C@]2(C)[C@H]1C(=O)CN1CCN(c2cc(N3CCOCC3)nc(N3CCOCC3)n2)CC1 [Example 86]
inhibition of MDA formation (rat brain synaptosomes [2]): demonstrate such activity by inhibition of MDA formation
% Inhibition at 10⁻⁶ M (interleukin-1): 84%
inhibition of conjugated diene formation (rat brain synaptosomes [1]): demonstrate such activity by inhibition of conjugated dienes

11α,17α-Dihydroxy-21-[4-(2-pyridinyl)-1-piperazinyl]pregn-4-ene-3,20-dione 11-(3,3-dimethyl-1-butyrate dihydrochloride [Example 28]
% of Embryos with 4 mm or Greater Avascular Zone (chick embryo): 73%

CCN(CC)c1cc(N2CCN(CC(=O)[C@@]3(O)[C@H](C)C[C@H]4[C@@H]5CCC6=CC(=O)C=C[C@]6(C)C5=CC[C@@]43C)CC2)nc(N(CC)CC)n1.Cl.O [Example 18, 21-[4-[2,6-Bis(diethylamino)-4-pyrimidinyl]-1-piperazinyl]-17α-hydroxy-16α-methylpregna-1,4,9(11)-triene-3,20-dione hydrochloride hydrate]
% Increase in 1 hr Post-Injury Grip Test Scores After 3 mg/kg (mouse head injury): 112.6%
% Inhibition of ACAT (5 »g/ml) (ACAT): 48.4%
inhibiting ACAT (ACAT): active in inhibiting ACAT

C[C@]12CCC(=O)C=C1CC[C@@H]1C2=CC[C@@]2(C)[C@H]1CC[C@]2(O)C(=O)CN1CCN(c2ccccn2)CC1.Cl [Example 3, 17α-Hydroxy-21-[4-(2-pyridinyl)-1-piperazinyl]pregna-4,9(11)-diene-3,20-dione hydrogen chloride salt]
% Inhibition of ACAT (5 »g/ml) (ACAT): 63.9%
inhibiting ACAT (ACAT): active in inhibiting ACAT
reduction of serum and arterial cholesterol (SEA Japanese Quail): demonstrates reduction of serum and arterial cholesterol
